What was measured:
[1] = target: T1, Histone-lysine N-methyltransferase EHMT1 (Homo sapiens) (UniProt Q9H9B1); details: at 10 µM
T1 sequence (whole entry): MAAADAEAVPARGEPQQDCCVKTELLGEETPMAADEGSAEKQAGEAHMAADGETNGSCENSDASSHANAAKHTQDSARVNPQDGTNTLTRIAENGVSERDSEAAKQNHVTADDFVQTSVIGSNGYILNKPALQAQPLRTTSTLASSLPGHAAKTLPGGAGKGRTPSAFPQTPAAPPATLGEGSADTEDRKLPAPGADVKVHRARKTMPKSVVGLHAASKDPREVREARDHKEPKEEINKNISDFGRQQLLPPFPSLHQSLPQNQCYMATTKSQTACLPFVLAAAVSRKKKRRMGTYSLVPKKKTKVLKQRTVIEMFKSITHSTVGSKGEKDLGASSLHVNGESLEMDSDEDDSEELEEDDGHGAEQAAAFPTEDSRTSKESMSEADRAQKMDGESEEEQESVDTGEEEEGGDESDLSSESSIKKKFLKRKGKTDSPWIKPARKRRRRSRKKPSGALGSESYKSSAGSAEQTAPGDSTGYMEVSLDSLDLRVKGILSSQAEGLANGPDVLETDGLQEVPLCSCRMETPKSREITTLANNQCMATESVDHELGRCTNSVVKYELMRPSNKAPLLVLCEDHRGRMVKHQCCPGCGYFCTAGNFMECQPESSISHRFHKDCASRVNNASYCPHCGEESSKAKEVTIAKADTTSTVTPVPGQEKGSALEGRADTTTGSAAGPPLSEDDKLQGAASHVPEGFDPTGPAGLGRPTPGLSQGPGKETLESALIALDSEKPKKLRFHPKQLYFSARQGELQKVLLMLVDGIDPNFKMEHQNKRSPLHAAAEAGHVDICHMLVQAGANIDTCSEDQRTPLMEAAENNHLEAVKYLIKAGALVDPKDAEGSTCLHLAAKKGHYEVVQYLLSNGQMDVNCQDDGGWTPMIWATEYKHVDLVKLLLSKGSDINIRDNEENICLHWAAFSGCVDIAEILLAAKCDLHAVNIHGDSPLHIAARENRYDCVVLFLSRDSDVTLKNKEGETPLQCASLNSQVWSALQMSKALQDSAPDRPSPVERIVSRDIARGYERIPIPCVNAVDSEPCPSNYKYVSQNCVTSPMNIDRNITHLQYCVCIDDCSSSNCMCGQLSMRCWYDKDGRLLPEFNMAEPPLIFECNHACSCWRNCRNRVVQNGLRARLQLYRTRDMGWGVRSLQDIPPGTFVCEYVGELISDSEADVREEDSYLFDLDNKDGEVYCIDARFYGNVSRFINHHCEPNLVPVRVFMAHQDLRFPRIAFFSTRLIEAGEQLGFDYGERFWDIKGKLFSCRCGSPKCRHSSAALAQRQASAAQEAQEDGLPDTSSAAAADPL

[2] = target: Calcium/calmodulin-dependent protein kinase type II subunit delta (Homo sapiens) (UniProt Q13557); test: Selectivity interaction (KinomeScan (DiscoverX)) EUB0000666a CAMK2D; details: at 10 µM
[3] = target: Receptor-interacting serine/threonine-protein kinase 2 (Homo sapiens, UniProt O43353); test: Selectivity interaction (KinomeScan (DiscoverX)) EUB0001049a RIPK2; details: at 1 µM
[4] = target: T2, Muscle, skeletal receptor tyrosine-protein kinase (Homo sapiens) (UniProt O15146); test: Selectivity interaction (KinomeScan (DiscoverX)) EUB0001619a MUSK; details: at 1 µM
T2 sequence (whole entry): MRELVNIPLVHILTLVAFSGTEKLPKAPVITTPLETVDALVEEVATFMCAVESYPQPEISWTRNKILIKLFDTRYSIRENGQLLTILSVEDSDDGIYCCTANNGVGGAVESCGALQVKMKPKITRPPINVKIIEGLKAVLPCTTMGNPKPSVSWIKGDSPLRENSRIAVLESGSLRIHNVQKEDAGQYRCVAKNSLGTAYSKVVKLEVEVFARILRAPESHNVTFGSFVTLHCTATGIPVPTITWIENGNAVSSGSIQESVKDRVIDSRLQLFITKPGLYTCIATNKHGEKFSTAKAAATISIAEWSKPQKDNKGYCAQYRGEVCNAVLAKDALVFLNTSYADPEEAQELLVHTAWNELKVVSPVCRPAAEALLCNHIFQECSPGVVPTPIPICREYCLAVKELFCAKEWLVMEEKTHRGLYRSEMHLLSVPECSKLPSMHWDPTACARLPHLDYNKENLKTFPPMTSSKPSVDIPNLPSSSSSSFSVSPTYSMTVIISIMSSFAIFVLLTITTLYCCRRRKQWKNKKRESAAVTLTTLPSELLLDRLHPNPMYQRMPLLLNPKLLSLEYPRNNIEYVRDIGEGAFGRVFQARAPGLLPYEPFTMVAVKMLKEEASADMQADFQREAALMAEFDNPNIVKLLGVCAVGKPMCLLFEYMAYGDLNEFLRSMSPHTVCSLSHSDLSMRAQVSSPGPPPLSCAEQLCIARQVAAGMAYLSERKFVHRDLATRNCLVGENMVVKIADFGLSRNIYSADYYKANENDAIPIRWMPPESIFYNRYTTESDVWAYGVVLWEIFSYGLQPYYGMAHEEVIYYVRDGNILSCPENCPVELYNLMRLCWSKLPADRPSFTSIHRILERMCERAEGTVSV

[5] = target: Calcium/calmodulin-dependent protein kinase type II subunit delta (Homo sapiens) (UniProt Q13557); test: Selectivity interaction (KinomeScan (DiscoverX)) EUB0000618a CAMK2D; details: at 10 µM
[6] = target: T3, Mitogen-activated protein kinase 12 (Homo sapiens) (UniProt P53778); test: Selectivity interaction (KinomeScan (DiscoverX)) EUB0000618a MAPK12; details: at 10 µM
T3 sequence (whole entry): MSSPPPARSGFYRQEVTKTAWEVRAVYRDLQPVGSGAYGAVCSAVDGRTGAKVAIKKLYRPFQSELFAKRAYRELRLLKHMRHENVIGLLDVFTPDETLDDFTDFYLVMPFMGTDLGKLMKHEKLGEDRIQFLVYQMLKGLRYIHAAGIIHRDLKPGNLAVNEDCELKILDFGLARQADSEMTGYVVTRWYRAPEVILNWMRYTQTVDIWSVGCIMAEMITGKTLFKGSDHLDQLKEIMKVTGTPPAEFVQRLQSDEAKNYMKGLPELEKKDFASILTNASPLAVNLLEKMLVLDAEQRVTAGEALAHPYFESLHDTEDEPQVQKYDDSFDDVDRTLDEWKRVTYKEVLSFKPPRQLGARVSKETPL

[7] = target: Ribosomal protein S6 kinase alpha-5 (Homo sapiens) (UniProt O75582); test: Selectivity interaction (KinomeScan (DiscoverX)) EUB0000618a RPS6KA5; details: at 10 µM
[8] = target: Tyrosine-protein kinase Blk (Homo sapiens) (UniProt P51451); test: Selectivity interaction (Kinase panel (Invitrogen)) EUB0000639a BLK; details: at 200 nM
[9] = target: Casein kinase I isoform alpha (Homo sapiens, UniProt P48729); test: Selectivity interaction (ActivX KiNativ screen (kinase selectivity in THP-1 cell lysates)) EUB0000639a CSNK1A1; format: subcellular; details: lysate, at 0.2 µM
Chain of Casein kinase I isoform alpha (P48729 2-337 limits assumed): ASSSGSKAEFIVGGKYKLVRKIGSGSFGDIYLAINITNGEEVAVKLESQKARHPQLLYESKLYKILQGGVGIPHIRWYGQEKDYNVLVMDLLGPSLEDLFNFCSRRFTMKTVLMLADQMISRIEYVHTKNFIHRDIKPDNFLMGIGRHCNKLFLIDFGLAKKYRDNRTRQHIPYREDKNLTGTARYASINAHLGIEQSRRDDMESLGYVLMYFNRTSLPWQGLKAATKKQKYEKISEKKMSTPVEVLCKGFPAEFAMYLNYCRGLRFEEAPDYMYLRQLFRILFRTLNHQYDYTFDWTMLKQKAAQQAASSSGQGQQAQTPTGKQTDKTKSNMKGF

Chain of Calcium/calmodulin-dependent protein kinase type II subunit delta (Homo sapiens) (Q13557 whole entry): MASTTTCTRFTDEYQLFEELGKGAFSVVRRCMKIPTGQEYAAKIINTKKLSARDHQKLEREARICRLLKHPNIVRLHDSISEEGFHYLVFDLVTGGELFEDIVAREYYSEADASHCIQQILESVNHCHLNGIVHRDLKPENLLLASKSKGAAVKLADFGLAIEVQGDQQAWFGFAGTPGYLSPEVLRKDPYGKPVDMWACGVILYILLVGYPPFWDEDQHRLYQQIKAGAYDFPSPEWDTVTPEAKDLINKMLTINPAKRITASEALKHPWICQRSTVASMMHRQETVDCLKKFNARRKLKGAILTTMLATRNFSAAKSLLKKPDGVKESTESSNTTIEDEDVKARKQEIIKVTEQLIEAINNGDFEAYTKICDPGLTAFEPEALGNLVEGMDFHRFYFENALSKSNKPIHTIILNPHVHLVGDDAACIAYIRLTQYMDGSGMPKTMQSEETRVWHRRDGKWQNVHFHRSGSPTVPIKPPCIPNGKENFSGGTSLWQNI
Chain of Tyrosine-protein kinase Blk (Homo sapiens) (P51451 2-505 limits assumed): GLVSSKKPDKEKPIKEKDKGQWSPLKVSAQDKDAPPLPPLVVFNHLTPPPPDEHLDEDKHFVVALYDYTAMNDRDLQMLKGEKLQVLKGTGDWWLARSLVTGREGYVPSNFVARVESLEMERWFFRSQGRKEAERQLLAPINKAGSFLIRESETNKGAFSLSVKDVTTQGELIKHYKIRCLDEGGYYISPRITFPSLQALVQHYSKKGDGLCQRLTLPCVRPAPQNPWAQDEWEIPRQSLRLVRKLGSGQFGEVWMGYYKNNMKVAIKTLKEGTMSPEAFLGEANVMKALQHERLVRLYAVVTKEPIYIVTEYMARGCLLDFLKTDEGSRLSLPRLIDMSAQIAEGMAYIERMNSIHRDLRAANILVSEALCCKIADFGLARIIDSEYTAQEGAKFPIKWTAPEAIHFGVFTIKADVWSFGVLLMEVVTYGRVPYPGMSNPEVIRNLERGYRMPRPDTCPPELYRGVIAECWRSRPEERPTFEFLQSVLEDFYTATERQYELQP
Chain of Ribosomal protein S6 kinase alpha-5 (Homo sapiens) (O75582 whole entry, looked up): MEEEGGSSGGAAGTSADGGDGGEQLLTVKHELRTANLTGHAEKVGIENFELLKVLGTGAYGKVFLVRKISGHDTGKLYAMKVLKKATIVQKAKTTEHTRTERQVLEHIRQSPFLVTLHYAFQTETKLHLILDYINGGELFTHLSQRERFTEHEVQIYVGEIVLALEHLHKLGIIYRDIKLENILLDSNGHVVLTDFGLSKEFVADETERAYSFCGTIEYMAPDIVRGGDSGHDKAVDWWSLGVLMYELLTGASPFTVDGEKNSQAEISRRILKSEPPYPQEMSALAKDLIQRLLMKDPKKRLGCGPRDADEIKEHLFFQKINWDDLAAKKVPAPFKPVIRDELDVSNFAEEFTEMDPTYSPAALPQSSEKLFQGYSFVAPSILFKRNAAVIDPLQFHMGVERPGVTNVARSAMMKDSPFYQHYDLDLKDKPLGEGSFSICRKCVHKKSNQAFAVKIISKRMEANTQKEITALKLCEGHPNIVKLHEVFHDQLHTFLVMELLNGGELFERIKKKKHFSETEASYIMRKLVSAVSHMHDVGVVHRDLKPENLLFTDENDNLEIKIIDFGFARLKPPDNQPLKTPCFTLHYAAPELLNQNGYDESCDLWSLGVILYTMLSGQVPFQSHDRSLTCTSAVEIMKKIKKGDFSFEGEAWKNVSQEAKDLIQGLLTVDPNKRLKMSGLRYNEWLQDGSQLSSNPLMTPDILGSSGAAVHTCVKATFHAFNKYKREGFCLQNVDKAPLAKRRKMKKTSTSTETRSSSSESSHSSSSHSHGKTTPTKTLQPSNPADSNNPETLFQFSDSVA
Chain of Receptor-interacting serine/threonine-protein kinase 2 (O43353 whole entry): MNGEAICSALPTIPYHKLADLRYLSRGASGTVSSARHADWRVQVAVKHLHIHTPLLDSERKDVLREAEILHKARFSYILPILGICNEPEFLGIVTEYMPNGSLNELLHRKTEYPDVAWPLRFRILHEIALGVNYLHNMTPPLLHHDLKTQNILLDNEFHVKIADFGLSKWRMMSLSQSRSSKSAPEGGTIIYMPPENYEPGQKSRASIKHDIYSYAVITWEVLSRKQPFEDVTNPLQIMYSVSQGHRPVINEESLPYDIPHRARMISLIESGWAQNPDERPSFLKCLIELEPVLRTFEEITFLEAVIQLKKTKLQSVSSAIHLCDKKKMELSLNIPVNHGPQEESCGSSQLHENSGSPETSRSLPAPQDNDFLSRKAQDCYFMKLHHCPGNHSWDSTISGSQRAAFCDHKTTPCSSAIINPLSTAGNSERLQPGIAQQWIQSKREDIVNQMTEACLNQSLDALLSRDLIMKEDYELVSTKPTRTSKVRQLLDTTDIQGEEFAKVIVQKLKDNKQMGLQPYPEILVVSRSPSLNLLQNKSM

CNCCN1CCC(c2cc(CN(C)C(=O)c3cccc(Oc4ccccc4)c3)ccn2)CC1
% activity [1]: > 90%

O=C(NOC[C@H](O)CO)c1ccc(F)c(F)c1Nc1ccc(I)cc1F
% of control [2]: 100%

COc1cc(Nc2nc(C)cc(-c3cnn4nc(OC)ccc34)n2)cc(C(F)(F)F)c1
% of control [3]: 100%

N#Cc1cccc(-c2c[nH]c3ncnc(N4CCOCC4)c23)c1
% of control [4]: 95%

O[C@H]1CC[C@H](Nc2ncc3nc(Nc4c(F)cc(F)cc4F)n([C@H]4CCOC4)c3n2)CC1
% of control [5]: 76%
% of control [6]: 80%
% of control [7]: 100%

CC[C@@H]1[C@H](F)C(=O)N[C@@H]1COc1nccc2cc(C(N)=O)c(OC)cc12 [ZIMLOVISERTIB]
% of inhibition [8]: 4.04%
% of inhibition [9]: -3.6%
